Results on 19 compounds are retold here after ChEMBL document CHEMBL3992492, “Sulfoximines from a Medicinal Chemist's Perspective: Physicochemical and in vitro Parameters Relevant for Drug Discovery” (Eur J Med Chem, 2017).

Usually Papp stands for a coefficient for how fast a substance crosses the barrier. A word on the thermodynamic solubility: it is the concentration in solution at equilibrium with solid. For orientation: logP means a log measure of how a compound divides between an organic and an aqueous phase. Broadly, the solubility is how much of the substance goes into solution per volume. A word on the half-life: it is the time in which the quantity being followed falls by half. The low end stands for rapid decline, the high end for slow decline.

The nature of data set [1]: in vitro. The following applies: PAMPA, pH 7.4. (The PAMPA barrier holds no transporters, so it reflects passive diffusion.)
Description: Apparent permeability of the compound at pH 7.4 by PAMPA
Data set [2] in a line: physchem. The following applies: aqueous.
Data set [3] is described as follows: physchem. The following applies: octanol/water, pH 10.
Data set [4] in a line: in vitro. As to conditions: human, liver microsomes.
The nature of data set [5]: physchem. As to conditions: acetonitrile/water mixture.
Description: Solubility of the compound in acetonitrile/water mixture at 10 mM measured after 24 by HPLC-UV method
Data set [6] in a line: in vitro. As to conditions: human, liver microsomes. The source holds these as a separate data set. Background: Microsomes from liver hold many membrane-bound enzymes, among them those of drug oxidation.
Description: Half life in human liver microsomes at 1 uM in presence of NADPH by LC-MS/MS method
Data set [7] is described as follows: Apparent partition coefficient, log P of the compound in n-octanol/aqueous mixture by potentiometric titration method. Format: physicochemical.

Converted amounts (≈) assume the structure as drawn.

Turning to `CC(C)(C)NC(=O)c1ccc(C(F)(F)F)cc1`, the Papp in “in vitro [1]” came out at 7.1 ×10⁻⁶ cm/s. In addition, the thermodynamic solubility in “physchem [2]” is 10 µg/mL (≈ 40.8 µM). The same compound came in with a logP in “physchem [3]” of 2.6. Besides, the hepatic extraction ratio at 1 µM in “in vitro [4]” is < 0.23. Moreover, the solubility at 10000 µM in the data set “physchem [5]” was found to be 14 µg/mL (≈ 57.1 µM). Also, in “in vitro [6]”, the half-life at 1 µM was > 130 min.
Take `CC(C)(C)NC(=O)Nc1ccc(C(F)(F)F)cc1`: in the data set “in vitro [1]”, the Papp was found to be 5.1 ×10⁻⁶ cm/s. The compound further had a thermodynamic solubility in the data set “physchem [2]” of 20 µg/mL (≈ 76.8 µM). This compound returned a logP in the data set “physchem [3]” of 3.4. Moreover, in the data set “in vitro [4]”, the hepatic extraction ratio at 1 µM is < 0.23. In addition, the solubility at 10000 µM in “physchem [5]” is < 1 µg/mL. For the same compound, the half-life at 1 µM in “in vitro [6]” is > 130 min.
As for `NC(=O)c1ccc(C(F)(F)F)cc1`, in “physchem [2]”, the thermodynamic solubility turned out to be 300 µg/mL (≈ 1590 µM). The compound further had a logP in the data set “physchem [3]” of 0.3. The solubility at 10000 µM in “physchem [5]” was > 44 µg/mL.
`N#Cc1ccc(N=S2(=O)CCCCC2)cc1`: in “in vitro [1]”, the Papp is 7.9 ×10⁻⁶ cm/s. The logP in data set [7] was determined as 1.1. In addition, the hepatic extraction ratio at 1 µM in “in vitro [4]” is < 0.23. The solubility at 10000 µM in the data set “physchem [5]” was found to be 45 µg/mL (≈ 192 µM). Further, in “in vitro [6]”, the half-life at 1 µM was > 130 min.
For the compound `CN(C)S(C)(=O)=Nc1ccc(C(F)(F)F)cc1` (configuration not stated), the Papp in the data set “in vitro [1]” amounted to 7.6 ×10⁻⁶ cm/s. For the same compound, the solubility (thermodynamic) in the data set “physchem [2]” turned out to be 70 µg/mL (≈ 263 µM). Also, the logP in the data set “physchem [3]” is 2.4. Also, in “in vitro [4]”, the hepatic extraction ratio at 1 µM was 0.48. In the data set “physchem [5]”, the solubility at 10000 µM worked out at 41 µg/mL (≈ 154 µM). Besides, the half-life at 1 µM in the data set “in vitro [6]” came to 42 min.
`C[S@@](=O)(=Nc1ccc(C(F)(F)F)cc1)c1ccccc1`: the Papp in the data set “in vitro [1]” worked out at 3.5 ×10⁻⁶ cm/s. In addition, in data set [7], the logP is 3.7. For the same compound, the hepatic extraction ratio at 1 µM in the data set “in vitro [4]” is < 0.23. For the same compound, the solubility at 10000 µM in “physchem [5]” amounted to 17 µg/mL (≈ 56.8 µM). Moreover, in “in vitro [6]”, the half-life at 1 µM was > 130 min.
The corresponding values for `CS(=O)(=Nc1ccc(C(F)(F)F)cc1)C1CCOCC1` (configuration not stated) are 9.6 ×10⁻⁶ cm/s, 2.5, < 0.23, 46 µg/mL (≈ 150 µM) and > 130 min.
The corresponding values for `C[S@](=O)(=Nc1ccc(C(F)(F)F)cc1)c1ccccc1` are 2.5 ×10⁻⁶ cm/s, 3.7, < 0.23, 20 µg/mL (≈ 66.8 µM) and > 130 min.
In “physchem [2]”, `CN(c1ccc(C(F)(F)F)cc1)S(C)(=O)=O` showed a solubility (thermodynamic) of 200 µg/mL (≈ 790 µM). In the data set “physchem [3]”, this compound displayed a logP of 2.5. For the same compound, the solubility at 10000 µM in the data set “physchem [5]” stood at 46 µg/mL (≈ 182 µM).
Compound `C[S+]([O-])Cc1ccc(C(F)(F)F)cc1` (configuration not stated) came in with a Papp in the data set “in vitro [1]” of 6.3 ×10⁻⁶ cm/s. Besides, the solubility (thermodynamic) in “physchem [2]” is 4300 µg/mL (≈ 19300 µM). In addition, in “physchem [3]”, the logP is -0.5. In “in vitro [4]”, the hepatic extraction ratio at 1 µM was determined as 0.25. In addition, the solubility at 10000 µM in the data set “physchem [5]” is > 51 µg/mL. The compound also returned a half-life at 1 µM in “in vitro [6]” of 110 min.
Consider `CC(=O)Nc1ccc(C(F)(F)F)cc1`, for which the Papp in the data set “in vitro [1]” amounted to 6 ×10⁻⁶ cm/s. Moreover, the solubility (thermodynamic) in “physchem [2]” amounted to 100 µg/mL (≈ 492 µM). The logP in “physchem [3]” was determined as 1.8. Moreover, in “in vitro [4]”, the hepatic extraction ratio at 1 µM stood at 0.39. Besides, the solubility at 10000 µM in the data set “physchem [5]” came out at 10 µg/mL (≈ 49.2 µM). In “in vitro [6]”, this compound registered a half-life at 1 µM of 60 min.
As for `C[S+]([O-])c1ccc(C(F)(F)F)cc1` (configuration not stated), the solubility (thermodynamic) in “physchem [2]” was found to be 11100 µg/mL (≈ 53300 µM). Further, the log partition coefficient (logP) in the data set “physchem [3]” is -0.3. In “physchem [5]”, the solubility at 10000 µM was > 46 µg/mL.
In the data set “in vitro [1]”, `O=S1(=Nc2cc(C(F)(F)F)cc(C(F)(F)F)c2)CCCCC1` showed a Papp of 3.3 ×10⁻⁶ cm/s. Moreover, in data set [7], the logP worked out at 4. Moreover, the hepatic extraction ratio at 1 µM in the data set “in vitro [4]” stood at 0.87. Besides, the solubility at 10000 µM in the data set “physchem [5]” was < 1 µg/mL. In “in vitro [6]”, this compound returned a half-life at 1 µM of 6 min.
The compound `CN(C)S(=O)(=O)c1ccc(C(F)(F)F)cc1` showed a solubility (thermodynamic) in “physchem [2]” of 90 µg/mL (≈ 355 µM). This compound also came in with a logP in “physchem [3]” of 2.7. Moreover, the solubility at 10000 µM in the data set “physchem [5]” is 47 µg/mL (≈ 186 µM).
Consider `CS(=O)(=Nc1ccc(C(F)(F)F)cc1)c1ccncc1` (configuration not stated), for which, in “in vitro [1]”, the Papp was determined as 6.2 ×10⁻⁶ cm/s. In data set [7], the logP was determined as 2.6. For the same compound, the hepatic extraction ratio at 1 µM in the data set “in vitro [4]” was found to be 0.41. Also, in the data set “physchem [5]”, the solubility at 10000 µM amounted to 44 µg/mL (≈ 147 µM). The half-life at 1 µM in the data set “in vitro [6]” came to 56 min.
The corresponding values for `CS(=O)(=Nc1ccc(C(F)(F)F)cc1)C1CC1` (configuration not stated) are 7.8 ×10⁻⁶ cm/s, 2.3, < 0.23, 40 µg/mL (≈ 152 µM) and > 130 min.
Take `COc1ccc(N=S2(=O)CCCCC2)cc1`: the Papp in the data set “in vitro [1]” was found to be 9.1 ×10⁻⁶ cm/s. In addition, the logP in data set [7] was -0.1. In “physchem [2]”, the thermodynamic solubility was found to be 900 µg/mL (≈ 3760 µM). Also, the hepatic extraction ratio at 1 µM in “in vitro [4]” was < 0.23. In the data set “physchem [5]”, the solubility at 10000 µM was > 51 µg/mL. In the data set “in vitro [6]”, the half-life at 1 µM was > 130 min.
As to `CC(=O)N(C)c1ccc(C(F)(F)F)cc1`, the Papp in the data set “in vitro [1]” was found to be 9.7 ×10⁻⁶ cm/s. The same compound returned a thermodynamic solubility in “physchem [2]” of 1300 µg/mL (≈ 5990 µM). The compound also registered a logP in “physchem [3]” of 0.8. Moreover, the solubility at 10000 µM in the data set “physchem [5]” is > 52 µg/mL.
For the compound `CS(=O)(=Nc1ccc(C(F)(F)F)cc1)c1cccnc1` (configuration not stated), the Papp in the data set “in vitro [1]” was 8.4 ×10⁻⁶ cm/s. Further, in data set [7], the logP worked out at 2.5. The hepatic extraction ratio at 1 µM in the data set “in vitro [4]” is < 0.23. In addition, the solubility at 10000 µM in the data set “physchem [5]” is 47 µg/mL (≈ 157 µM). For the same compound, the half-life at 1 µM in “in vitro [6]” is > 130 min.
